Measurements from patent US20190315823A1, “SMALL CATIONIC ANTI-BIOFILM AND IDR PEPTIDES” (priority 2013, published 2019).
Ends that are not written are not given here.

What was measured:
[1] = test system: methicillin resistant Staphylococcus aureus (MRSA) biofilm; settings: approximate peptide concentration […] (around 3 μg/ml); compared to untreated samples
Method: Methods of assessment of anti-biofilm activity—Biofilm formation was initially analyzed using a static abiotic solid surface assay as described elsewhere (de la Fuente-Nunez et al., 2012). Dilutions (1/100) of overnight cultures were incubated in BM2 biofilm-adjusted medium [62 mM potassium phosphate buffer (pH 7), 7 mM (NH4)2SO4, 2 mM MgSO4, 10 μM FeSO4, 0.4% (wt/vol) glucose, 0.5% (wt/vol) Casamino Acids], or a nutrient medium such as Luria Broth, in polypropylene microtiter plates (Falcon, United States) in the absence (control) or presence of peptide. Peptide was added at time zero (prior to adding the diluted, overnight cultures) in varying concentrations, and the decrease in biofilm formation was recorded at 22-46 h for most bacteria. Planktonic cells were removed, biofilm cells adhering to the side of the tubes were stained with crystal violet, and absorbance at 595 nm was measured using a microtiter plate reader (Bio-Tek Instruments Inc., United States). Some peptides were screened against two Gram negative organisms, P. aeruginosa and K. pneumoniae using a Bioflux apparatus (AutoMate Scientific, Berkeley, Calif.; http://www.autom8.com/bioflux_biofilm.html), which allows for the high-throughput, real-time analysis of biofilms.

[2] = test system: human peripheral blood mononuclear cells (MCP-1); experiment: SPOT-synthesized derivative screen: production of chemokine MCP-1; format: cell-based; settings: Table 12, No LPS, human PBMC, peptide at ~18-24 μM; for MCP1: background subtracted 139 (HH2 derivatives), 170 (1018 derivatives), 242 (1002 and hybrid peptides) pg/ml
Method: Venous blood (20 ml) from healthy volunteers was collected in Vacutainer® collection tubes containing sodium heparin as an anticoagulant (Becton Dickinson, Mississauga, ON) in accordance with UBC ethical approval and guidelines. Blood was diluted 1:1 with complete RPMI 1640 medium and separated by centrifugation over a Ficoll-Paque® Plus (Amersham Biosciences, Piscataway, N.J., USA) density gradient. White blood cells were isolated from the buffy coat, washed twice in RPMI 1640 complete medium, and the number of peripheral blood mononuclear cells (PBMC) was determined by Trypan blue exclusion. PBMC (5×10^5) were seeded into 12-well tissue culture dishes (Falcon; Becton Dickinson) at 0.75 to 1×10^6 cells/ml at 37° C. in 5% CO2. The above conditions were chosen to mimic conditions for circulating blood monocytes entering tissues at the site of infection via extravasation.
Following incubation of the cells under various treatment regimens, the tissue culture supernatants were centrifuged at 1000×g for 5 min, then at 10,000×g for 2 min to obtain cell-free samples. Supernatants were aliquoted and then stored at −20° C. prior to assay for various chemokines by capture ELISA (eBioscience and BioSource International Inc., CA, USA respectively)

[3] = test system: LPS-stimulated human peripheral blood mononuclear cells (IL1-β); format: cell-based; settings: Table 12, cells stimulated with 10 ng/ml LPS; for IL1β Production: LPS alone 1313 (HH2 derivatives), 1927 (1018 derivatives), 2455 (1002 and hybrid peptides) pg/ml
Method: LPS from P. aeruginosa strain H103 was highly purified free of proteins and lipids using the Darveau-Hancock method. Briefly, P. aeruginosa was grown overnight in LB broth at 37° C. Cells were collected and washed and the isolated LPS pellets were extracted with a 2:1 chloroform:methanol solution to remove contaminating lipids. Purified LPS samples were quantitated using an assay for the specific sugar 2-keto-3-deoxyoctosonic acid (KDO assay) and then resuspended in endotoxin-free water (Sigma-Aldrich).

Substance	% Biofilm inhibition [1] [%]	Fold increase in MCP1 cf. untreated cells [2]	MCP1 [2] [pg/mL]	Fold change in IL1β relative to no peptide LPS stimulated cells [3]	IL1β Production [3] [pg/mL]
1002-W3: single substituted 1002 peptide (VQWWLIVWRIRK-NH2) [Peptide 1002-W3]	68	1.4	90.4	0.05	127
HH2-R2: single substituted HH2 peptide (VRLRIRVAVIRA-NH2)	54	4.6	604	1.10	1438
HH2-V10: single substituted HH2 peptide (VQLRIRVAVVRA-NH2)	68	36	5929	1.06	1390
1002-V9: single substituted 1002 peptide (VQRWLIVWVIRK-NH2) [Peptide 1002-V9]	47	1.5	131.8	0.05	134
HH2-R10: single substituted HH2 peptide (VQLRIRVAVRRA-NH2)	73	5.1	701	1.53	2003
1018-I1: single substituted 1018 peptide (IRLIVAVRIWRR-NH2) [Peptide 1018-I1]	56	18	2873	0.11	138
1002-V8: single substituted 1002 peptide (VQRWLIVVRIRK-NH2) [Peptide 1002-V8]	56	7.1	1468.2	0.08	198
HH2-L5: single substituted HH2 peptide (VQLRLRVAVIRA-NH2)	58	1.6	97	0.88	1156
1018-Q1: single substituted 1018 peptide (QRLIVAVRIWRR-NH2) [Peptide 1018-Q1]	46	3.1	363	0.12	158
1002-Q1: single substituted 1002 peptide (QQRWLIVWRIRK-NH2) [Peptide 1002-Q1]	77	6.9	1423.5	0.05	127
1002-L1: single substituted 1002 peptide (LQRWLIVWRIRK-NH2) [Peptide 1002-L1]	69	13.3	2988.6	0.05	127
HH2-V5: single substituted HH2 peptide (VQLRVRVAVIRA-NH2)	50	9.3	1409	1.29	1696
1002-W10: single substituted 1002 peptide (VQRWLIVWRWRK-NH2) [Peptide 1002-W10]	71	8.8	1889.1	0.05	127
HH2-K6: single substituted HH2 peptide (VQLRIKVAVIRA-NH2)	64	142	23989	0.80	1055
1018-W1: single substituted 1018 peptide (WRLIVAVRIWRR-NH2) [Peptide 1018-W1]	68	5.0	684	0.16	204
HH2-L1: single substituted HH2 peptide (LQLRIRVAVIRA-NH2)	72	4.8	654	0.94	1234
HH2-G7: single substituted HH2 peptide (VQLRIRGAVIRA-NH2)	33	1.5	78	1.02	1344
1002-R8: single substituted 1002 peptide (VQRWLIVRRIRK-NH2) [Peptide 1002-R8]	23	1.0	-11.7	0.36	892
1002-G2: single substituted 1002 peptide (VGRWLIVWRIRK-NH2) [Peptide 1002-G2]	74	4.7	891.9	0.05	127
1018-L8: single substituted 1018 peptide (VRLIVAVLIWRR-NH2) [Peptide 1018-L8]	40	0.5	-83	0.42	553
1018-A7: single substituted 1018 peptide (VRLIVAARIWRR-NH2) [Peptide 1018-A7]	52	0.5	-88	0.68	891
HH2-W1: single substituted HH2 peptide (WQLRIRVAVIRA-NH2)	67	29	4725	0.66	866
HH2-Q10: single substituted HH2 peptide (VQLRIRVAVQRA-NH2)	61	31	5057	0.90	1180
1002-I2: single substituted 1002 peptide (VIRWLIVWRIRK-NH2) [Peptide 1002-I2]	70	3.1	508.6	0.05	127
